B1: FasL: Fas ligand, cell death receptor ligand of the TNF superfamily used to induce apoptosis (protein, UniProt P48023 130-281, looked up)
Tumor necrosis factor ligand …: QIGHPSPPPEKKELRKVAHLTGKSNSRSMPLEWEDTYGIVLLSGVKYKKGGLVINETGLYFVYSKVYFRGQSCNNLPLSHKVYMRNSKYPQDLVMMEGKMMSYCTTGQMWARSSYLGAVFNLTSADHLYVNVSELSLVNFEESQTFFGLYKL
B2: TRAIL: TNF-related apoptosis inducing ligand, cell death receptor ligand used to induce apoptosis (protein, UniProt P50591 1-281, looked up)
Tumor necrosis factor ligand …: MAMMEVQGGPSLGQTCVLIVIFTVLLQSLCVAVTYVYFTNELKQMQDKYSKSGIACFLKEDDSYWDPNDEESMNSPCWQVKWQLRQLVRKMILRTSEETISTVQEKQQNISPLVRERGPQRVAAHITGTRGRSNTLSSPNSKNEKALGRKINSWESSRSGHSFLSNLHLRNGELVIHEKGFYYIYSQTYFRFQEEIKENTKNDKQMVQYIYKYTSYPDPILLMKSARNSCWSKDAEYGLYSIYQGGIFELKENDRIFVSVTNEHLIDMDHEASFFGAFLVG

Test system: embryonic rat hippocampal cells
Experiment: Apoptosis detection (TUNEL, DAPI counter-staining) in treated hippocampal cell cultures
Format: cell-based
Conditions: for apoptosis induced by cell death receptor pathway (Fas, TRAIL-R) in hippocampal cells: TSR peptide added to culture medium, 7 days of treatment; for number of apoptotic cells with death receptor ligand alone: FasL 20 ng/mL or TRAIL 80 ng/mL alone
Protocol: FIG. 2: Histogramm representing the percentage of apoptotic cells outside the clusters compared with the total number of cells, data provided by only one experiment realized in triplicate. In each assay, apoptotic labelling with TUNEL method were counted on 4 photos aleatory on each slide, and having always at least 1 neurosphere. The cultures were treated (cases TSR, FasL, TSR+FasL, TRAIL, TSR+TRAIL, FasL+TRAIL and TSR+FasL+TRAIL) or not treated (control, c) during 7 days with a TSR peptide concentration of 375 μg/mL and/or 20 ng/mL of FasL and/or 80 ng/mL of TRAIL).
Cultures of hippocampal cells from foetal rats: Cells were obtained from E18 rat brains. Tissues were removed in dissection medium (Hank's Balanced Salt Solution, HBSS plus antibiotics). Composition of dissection medium HBSS plus antibiotics): • potassium chloride (KCl): 400 mg/L • potassium phosphate (KH2PO4): 60 mg/L • sodium bicarbonate (NaHCO3): 350 mg/L • sodium chloride (NaCl): 8000 mg/L • sodium phosphate (Na2HPO4): 48 mg/L • D-glucose: 1000 mg/L • penicillin-streptomycin: 100 units/mL
Meninges were removed from the embryos brains and hippocampus was dissected in a sterile petri dish in HBSS plus antibiotic medium. After centrifugation cells were ressuspended in culture medium MEM with Earl Salts supplemented with B27, EGF, FGF-2 and antibiotics. The composition of the culture medium was the following: • L-arginine hydrochloride: […] • L-cystine: 24 mg/L • L-glutamine: 292 mg/L • L-histidine-H2O Hydrochloride: 42 mg/L • L-isoleucine: 52 mg/L • L-leucine 52 mg/L • L-lysine Hydrochloride: 73 mg/l, • L-methionine: 15 mg/L • L-phenylalanine: 32 mg/L • L-threonine: 48 mg/L • L-tryptophane: 10 mg/L • L-tyrosine: 36 mg/L • L-valine: 46 mg/L • choline Chloride: 1 mg/L • D-calcium pantothenate: 1 mg/L • folic acid: 1 mg/L • I-inositol: 2 mg/L • Niacinamide: 1 mg/L • pyridoxal Hydrochloride: 1 mg/L • Riboflavine: 0.1 mg/L • thiamine Hydrochloride: 1 mg/L • calcium chloride (CaCl2-2H2O): 264 mg/L • magnesium sulfate (MgSO4-7H2O): 200 mg/L • potassium chloride (KCl): 400 mg/L • sodium bicarbonate (NaHCO3): 2200 mg/L • sodium chloride (NaCl): 6800 mg/L • sodium phosphate (NaH2PO4-2H2O): 158 mg/L • D-glucose: 4500 mg/L • phenol red: 10 mg/L • Sodium pyruvate: 110.04 mg/L • B27 medium (Invitrogen) 50×: 2% v/v • EGF: 20 μg/L • FGF-2: 20 μg/L • Penicillin-streptomycin: 100 units/mL
Hippocampus fragments were dissociated mechanically with 1 syringe 1 ml and 1 needle 25G and added with 1 mL of culture medium then centrifuged at 1200 rpm for 10 min. The supernatant is then removed and the cell pellet is resupended in 1 mL of culture medium. Other mechanic dissociation was performed with a seringe 1 mL and a needle 25G. Cell count was determined with Malassez hemocytometer and viability of cells was evaluated by counting the cells which have not absorbed the Trypan blue. Then cells are seeded in 48-well plates, at 40 000 cells by well in 500 μL of culture medium, on culture dishes precovered with collagen.
Preparation of precovered dishes with collagen: After an incubation of 10 min in absolute ethanol, the glass dishes were sterilized by heating 2H at 120° C. Sterilized glass dishes (10 mm diameter) was put on culture well and covered with a 0.1 mg/mL collagen calf skin solution. After 1 hr incubation at 37° C., the excess of solution is removed and the plate is maintained one night under hood of culture in order to let dry the plates. Before use, the wells were washed twice with 200 μL sterile distillated water.
Treatment of embryonic rat hippocampal cells: After 5 days of culture, cells were cultured in medium without growth factors (MEM with Earl salts, B27 and antibiotics) with different conditions of treatment combinating TSR peptide (WSGWSSCSRSCG—SEQ ID No 8) (375 μg/mL), FasL (20 ng/mL) and TRAIL (80 ng/mL). […]

Molecule | number of apoptotic cells, apoptosis induced by FasL (TSR peptide 375 μg/mL + FasL 20 ng/mL, 7 days, compared to FasL culture, FIG. 2) | number of apoptotic cells, apoptosis induced by TRAIL (TSR peptide 375 μg/mL + TRAIL 80 ng/mL, 7 days, compared to TRAIL culture, FIG. 2) | level of apoptosis (final statement, presumably FasL+TRAIL culture) (TSR peptide 375 μg/mL, 7 days, FIG. 2, inducer not given) | apoptosis induced by cell death receptor pathway (Fas, TRAIL-R) in hippocampal cells | apoptosis induced by cell death receptor pathway (Fas, TRAIL-R) in hippocampal cells (listed as peptide TSR) | effect on basal apoptosis (number of apoptotic cells) (TSR peptide alone 375 μg/mL, 7 days, compared to control cultures, FIG. 2) | number of apoptotic cells with death receptor ligand alone (7 days, FIG. 2)
WSGWSSCSRSCG [TSR peptide, peptide derived from the TSR (thrombospondin type 1 units) of SCO-spondin] | decreased | decreased in the presence of TSR peptide to a level comparable to control cells | restores the basal level of apoptosis | inhibits the apoptosis | decreased | no effect | 
B1 |  |  |  |  |  |  | increased
B2 |  |  |  |  |  |  | more important than in the presence of FasL

— US20110178023A1, “Use Of SCO-Spondin Peptides For Inhibiting Or Preventing Neuronal Apoptosis Mediated By Cell Death Receptor Ligands” (Institut National de la Sante et de la Recherche Medicale …, priority 2007, published 2011)
